In US20170050957A1, “4-AMINO-6-(HETEROCYCLIC)PICOLINATES AND 6-AMINO-2-(HETEROCYCLIC)PYRIMIDINE-4-CARBOXYLATES AND THEIR USE AS HERBICIDES” (Dow AgroSciences LLC, priority 2013, published 2017):
Read-outs that look alike come from different tables or passages of the source.

Experiments:
[1] = system: Key Broadleaf Weed and Crop Species; assay: Post-emergent Test II herbicidal activity (Table 15); assay type: in vivo; conditions: post-emergence, 336 h, 14 d; for pest or weed control at 35 g/ha: 35 g ai/ha; for pest or weed control at 70 g/ha: 70 g ai/ha; for pest or weed control at 140 g/ha: 140 g ai/ha
In short: (§1)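 Greenhouse-grown seedlings at first/second true leaf receive a track spray at 187 L/ha, using a highest rate plus two-fold serial dilutions down to 1/16×. Watering is by subirrigation to avoid wash-off. Percent injury (0-100) is judged by eye at 14 d against untreated plants.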

[2] = system: Key Grass and Sedge Weeds as well as Grass Crops; assay: Post-emergent Test II herbicidal activity (Table 16); assay type: in vivo; conditions: post-emergence, 336 h, 14 days after application; for pest or weed control at 35 g/ha: 35 g ai/ha; for pest or weed control at 70 g/ha: 70 g ai/ha; for pest or weed control at 140 g/ha: 140 g ai/ha
In short: as §1

[3] = Abutilon theophrasti, velvetleaf (Abutilon theophrasti), read-out: Visual Growth Reduction (%) 14 Days After Application, ABUTH
[4] = Amaranthus retroflexus, redroot pigweed (Amaranthus retroflexus), read-out: Visual Growth Reduction (%) 14 Days After Application, AMARE
[5] = Brassica napus, oilseed rape, canola (Brassica napus), read-out: Visual Growth Reduction (%) 14 Days After Application, BRSNN
[6] = Chenopodium album, lambsquarters (Chenopodium album), read-out: Visual Growth Reduction (%) 14 Days After Application, CHEAL
[7] = Euphorbia heterophylla, wild poinsettia (Euphorbia heterophylla), read-out: Visual Growth Reduction (%) 14 Days After Application, EPHHL
[8] = Helianthus annuus, sunflower (Helianthus annuus), read-out: Visual Growth Reduction (%) 14 Days After Application, HELAN
[9] = Cyperus esculentus, yellow nutsedge (Cyperus esculentus), read-out: Visual Growth Reduction (%) 14 Days After Application CYPES
[10] = Echinochloa crus-galli, barnyardgrass (Echinochloa crus-galli), read-out: Visual Growth Reduction (%) 14 Days After Application ECHCG
[11] = Oryza sativa, rice (Oryza sativa), read-out: Visual Growth Reduction (%) 14 Days After Application ORYSA
[12] = Setaria faberi, giant foxtail (Setaria faberi), read-out: Visual Growth Reduction (%) 14 Days After Application SETFA
[13] = Triticum aestivum, wheat, spring (Triticum aestivum), read-out: Visual Growth Reduction (%) 14 Days After Application TRZAS
[14] = Zea mays, maize, corn (Zea mays), read-out: Visual Growth Reduction (%) 14 Days After Application ZEAMX

Row | Compound | melting point [°C] | pest or weed control at 35 g/ha [1, 3] [%] | pest or weed control at 70 g/ha [1, 3] [%] | pest or weed control at 140 g/ha [1, 3] [%] | pest or weed control at 35 g/ha [1, 4] [%] | pest or weed control at 70 g/ha [1, 4] [%] | pest or weed control at 140 g/ha [1, 4] [%] | pest or weed control at 35 g/ha [1, 5] [%] | pest or weed control at 70 g/ha [1, 5] [%] | pest or weed control at 140 g/ha [1, 5] [%] | pest or weed control at 35 g/ha [1, 6] [%] | pest or weed control at 70 g/ha [1, 6] [%] | pest or weed control at 140 g/ha [1, 6] [%] | pest or weed control at 35 g/ha [1, 7] [%] | pest or weed control at 70 g/ha [1, 7] [%] | pest or weed control at 140 g/ha [1, 7] [%] | pest or weed control at 35 g/ha [1, 8] [%] | pest or weed control at 70 g/ha [1, 8] [%] | pest or weed control at 140 g/ha [1, 8] [%] | pest or weed control at 35 g/ha [2, 9] [%] | other results
1 | COC(=O)c1nc(-c2cc3sccc3cc2F)nc(N)c1OC [Compound 3.22] | 168 | 0 to 29 | 0 to 29 | 0 to 29 | 60 to 74 | 95 to 100 | 95 to 100 | 0 to 29 | 30 to 44 | 60 to 74 | 60 to 74 | 75 to 84 | 85 to 94 | 95 to 100 | 95 to 100 | 95 to 100 | 75 to 84 | 85 to 94 | 85 to 94 | 0 to 29 | pest or weed control at 70 g/ha [2, 9]: 0 to 29%; pest or weed control at 140 g/ha [2, 9]: 0 to 29%; pest or weed control at 35 g/ha [2, 10]: 0 to 29%; pest or weed control at 70 g/ha [2, 10]: 0 to 29%; pest or weed control at 140 g/ha [2, 10]: 0 to 29%; pest or weed control at 35 g/ha [2, 11]: 0 to 29%; pest or weed control at 70 g/ha [2, 11]: 0 to 29%; pest or weed control at 140 g/ha [2, 11]: 0 to 29%; pest or weed control at 35 g/ha [2, 12]: 0 to 29%; pest or weed control at 70 g/ha [2, 12]: 0 to 29%; pest or weed control at 140 g/ha [2, 12]: 0 to 29%; pest or weed control at 35 g/ha [2, 13]: 0 to 29%; pest or weed control at 70 g/ha [2, 13]: 0 to 29%; pest or weed control at 140 g/ha [2, 13]: 0 to 29%; pest or weed control at 35 g/ha [2, 14]: 0 to 29%; pest or weed control at 70 g/ha [2, 14]: 0 to 29%; pest or weed control at 140 g/ha [2, 14]: 0 to 29%
2 | COc1c(N)nc(-c2ccc3ccsc3c2)nc1C(=O)O [Compound 3.21] | 134 to 136 | 0 to 29 | 30 to 44 | 45 to 59 | 95 to 100 | 95 to 100 | 95 to 100 | 75 to 84 | 85 to 94 | 95 to 100 | 85 to 94 | 85 to 94 | 95 to 100 | 75 to 84 | 85 to 94 | 95 to 100 | 60 to 74 | 60 to 74 | 75 to 84 | 0 to 29 | pest or weed control at 70 g/ha [2, 9]: 0 to 29%; pest or weed control at 140 g/ha [2, 9]: 0 to 29%; pest or weed control at 35 g/ha [2, 10]: 75 to 84%; pest or weed control at 70 g/ha [2, 10]: 85 to 94%; pest or weed control at 140 g/ha [2, 10]: 85 to 94%; pest or weed control at 35 g/ha [2, 11]: 0 to 29%; pest or weed control at 70 g/ha [2, 11]: 30 to 44%; pest or weed control at 140 g/ha [2, 11]: 30 to 44%; pest or weed control at 35 g/ha [2, 12]: 0 to 29%; pest or weed control at 70 g/ha [2, 12]: 30 to 44%; pest or weed control at 140 g/ha [2, 12]: 60 to 74%; pest or weed control at 35 g/ha [2, 13]: 30 to 44%; pest or weed control at 70 g/ha [2, 13]: 30 to 44%; pest or weed control at 140 g/ha [2, 13]: 45 to 59%; pest or weed control at 35 g/ha [2, 14]: 30 to 44%; pest or weed control at 70 g/ha [2, 14]: 60 to 74%; pest or weed control at 140 g/ha [2, 14]: 75 to 84%
